Values quoted from earlier work, collected in patent US11643417B2, “Tetrahydrobenzofurodiazepinone compound and pharmaceutical use thereof” (priority 2020, dated 2023).

What was measured:
[1] = tested on: cells derived from chronic myelogenous leukemia; conditions: Non-Patent Document 15; cited from earlier work
mouse LN model animals = conditions: Non-Patent Document 18; cited from earlier work
[2] = tested on: mouse cancer-bearing model; conditions: Non-Patent Documents 16 and 17; cited from earlier work

| SMILES | growth inhibitory and apoptosis-inducing effects [1] | glomerular damage (mouse LN model animals) | mortality (mouse LN model animals) | urinary albumin/creatinine ratio (mouse LN model animals) | tumor growth inhibitory effect [2] |
| --- | --- | --- | --- | --- | --- |
| O=C1NC(=O)/C(=C/c2cccc(C(F)(F)F)c2)S1 [SMI-4a] | growth inhibitory and apoptosis-inducing effects | reduce glomerular damage | improve mortality | reduce urinary albumin/creatinine ratio |  |
| C[C@H]1CN(c2c(NC(=O)c3ccc(F)c(-c4c(F)cccc4F)n3)cnc3c2CC[C@H]3O)C[C@@H](N)[C@@H]1O [INCB053914] |  |  |  |  | tumor growth inhibitory effect |
